Measured values published in patent EP0495432A1, “Hexa-cyclic compound” (DAIICHI PHARMACEUTICAL CO., LTD., priority 1991, dated 1992).

Test system: P388 murine leukemia cells
Assay: Cytotoxicity against P388 murine leukemia cells (MTT assay)
Format: cell-based
Settings: sample added after 24 hours, cultivated 3 days at 37°C, 5% CO₂, absorption at 540 nm; for IC₅₀: P388 cells 2.5x10³ per well, hydrochloride
Experimental: P388 murine leukemia cells were spread over a 96-well microplate, 2.5x10³ cells per well. A sample to be tested was added after 24 hours. Cells were cultivated under the conditions of 5% CO₂ at 37°C for 3 days. 3-(4,5-Dimethylthiazol-2-yl)-2,5-diphenyl-2H-tetrazolium bromide (MTT) was added 4 hours after the addition of the sample. Upon the addition of 200 µl/ml of isopropyl alcohol containing 0.04 N HCl the absorption at 540 nm was measured to determine IC₅₀.

| SMILES | IC₅₀ [ng/mL] | IC50 (Mus musculus, P388, P388 cells 2.5x10³ per well, read-out: IC₅₀) [µg/mL] |
| --- | --- | --- |
| CC[C@@]1(O)C(=O)OCc2c1cc1n(c2=O)Cc2c-1nc1ccc(OC)c3c1c2CCC3N.Cl (single isomer, unassigned) [Example 7 (Isomer B)] | 11.90 |  |
| CC[C@@]1(O)C(=O)OCc2c1cc1n(c2=O)Cc2c-1nc1ccc(OC)c3c1c2C(N)CC3.Cl (single isomer, unassigned) [Example 4 (Isomer B)] | 27.80 |  |
| CC[C@@]1(O)C(=O)OCc2c1cc1n(c2=O)Cc2c-1nc1ccc(OC)c3c1c2C(N)CC3.Cl (single isomer, unassigned) [Example 4 (Isomer A)] | 9.21 |  |
| CC[C@@]1(O)C(=O)OCc2c1cc1n(c2=O)Cc2c-1nc1cccc3c1c2C(N)CC3.Cl (single isomer, unassigned) [Example 2 (Isomer A)] | 3.38 |  |
| CC[C@@]1(O)C(=O)OCc2c1cc1n(c2=O)Cc2c-1nc1cccc3c1c2C(N)CC3.Cl (single isomer, unassigned) [Example 2 (Isomer B)] | 12.40 |  |
| CC[C@@]1(O)C(=O)OCc2c1cc1n(c2=O)Cc2c-1nc1ccc(OC)c3c1c2CCC3N.Cl (single isomer, unassigned) [Example 7 (Isomer A)] |  | 0.0114 |
